Reference: patent publication US20080058400A1, “Skin external preparation” (FUJIFILM CORPORATION, priority 2006, published 2008)

Key:
[1] = tested on: Human normal epidermal keratinocytes; assay: Amino acid deficient medium culturing test; assay type: cell-based; conditions: for Relative ratio: number of cells, named amino acid reduced to 10% by weight of general MCDB 153 medium concentration, 5 days culture, non-deficient medium = 100; for growth of human epidermal keratinocytes in deficient medium: medium deficient in the named amino acid
Method: Human normal epidermal keratinocytes (Sanko Junyaku) were used as the cells. […] The cells were pre-cultured at 37° C., under an atmosphere of 5% (v/v) CO2 until they became a semi-confluent state.
The keratinocytes cultured under a growing state in a T 75 flask were used. After removing the medium by suction, 5 ml of 0.25% trypsin solution was added thereto and incubated at room temperature for 10 minutes. A 10 ml portion of the medium was added thereto, and the cells were peeled off and recovered by pipetting. The thus obtained cell suspension was centrifuged at 1,000 rpm for 5 minutes, and the supernatant was discarded. The thus obtained cell pellet was suspended in 10 ml of the medium and centrifuged at 1,000 rpm for 5 minutes, and the supernatant was discarded. The thus obtained cell pellet was again suspended in 10 ml of the medium and centrifuged at 1,000 rpm for 5 minutes, and the supernatant was discarded. The thus obtained cell pellet was suspended in 2 ml of the medium, and the number of cells was counted.
As growth factors, 50 mg/l of BPE (bovine pituitary gland extract), 5 mg/l of insulin, 0.1 mM ethanolamine, 0.1 mM phosphoethanolamine and 0.00001 mg EGF ([…]) were added thereto. The aforementioned cells were mixed with 1 ml of this medium at a density of 3×10^4 cells, inoculated onto a 24 well plate and cultured at 37° C. for 5 days under an atmosphere of 5% (v/v) CO2, and then the number of cells was counted.

[2] = tested on: abdominal skin of male hairless mice; conditions: for Permeability (%) of the permeated whole amino acids: male, hairless, mouse, 24 h, 1 % by weight
Method: The skin sample was attached to a Keshany-Chien type diffusion cell. A 1 ml portion of each test liquid (described later) was added to the donor phase, and its upper side was sealed with Para Film. A 0.01 mol/l phosphate buffered saline (Wako Pure Chemical Industries) was added to the receptor phase, stirred and incubated at 32° C., and amounts of amino acids were determined by an HPLC method 24 hours later to calculate permeation ratio.
Using an HPLC amino acid analysis system of Shimadzu Corp. (Prominence), the determination was carried out by a post column fluorescence detection method which uses OPA (ortho-phthalaldehyde) as a reaction reagent.

O=C(O)[C@@H]1CCCN1 [Proline]
Relative ratio [1]: 13
Permeability of each amino acid [2]: 7.9%

N[C@@H](Cc1ccc(O)cc1)C(=O)O [Tyrosine]
growth of human epidermal keratinocytes in deficient medium [1]: growth was suppressed

CC[C@H](C)[C@H](N)C(=O)O [Isoleucine]
growth of human epidermal keratinocytes in deficient medium [1]: growth was suppressed
Relative ratio [1]: 7
Permeability of each amino acid [2]: 20.8%

N[C@@H](CO)C(=O)O [Serine]
growth of human epidermal keratinocytes in deficient medium [1]: growth was suppressed
Relative ratio [1]: 6
Permeability of each amino acid [2]: 15.2%

N[C@@H](Cc1c[nH]cn1)C(=O)O [Histidine]
growth of human epidermal keratinocytes in deficient medium [1]: growth was suppressed
Relative ratio [1]: 7
Permeability of each amino acid [2]: 15.2%

NC(=O)C[C@H](N)C(=O)O [Asparagine]
Relative ratio [1]: 13
Permeability of each amino acid [2]: 14.2%

N[C@@H](CS)C(=O)O [Cysteine]
growth of human epidermal keratinocytes in deficient medium [1]: growth was suppressed
Relative ratio [1]: 9
Permeability of each amino acid [2]: 14.7%

N[C@@H](Cc1ccccc1)C(=O)O [Phenylalanine]
growth of human epidermal keratinocytes in deficient medium [1]: growth was suppressed
Relative ratio [1]: 4
Permeability of each amino acid [2]: 15.1%

CC(C)[C@H](N)C(=O)O [Valine]
growth of human epidermal keratinocytes in deficient medium [1]: growth was suppressed
Relative ratio [1]: 9
Permeability of each amino acid [2]: 14.9%

N[C@@H](Cc1c[nH]c2ccccc12)C(=O)O [Tryptophan]
Relative ratio [1]: 15
Permeability of each amino acid [2]: 3.6%

CC(C)C[C@H](N)C(=O)O [Leucine]
growth of human epidermal keratinocytes in deficient medium [1]: growth was suppressed
Relative ratio [1]: 6
Permeability of each amino acid [2]: 21.3%

NC(=O)CC[C@H](N)C(=O)O [Glutamine]
Relative ratio [1]: 16
Permeability of each amino acid [2]: 10.2%

N[C@@H](CC(=O)O)C(=O)O [Aspartic acid]
growth of human epidermal keratinocytes in deficient medium [1]: growth was suppressed
Relative ratio [1]: 6
Permeability of each amino acid [2]: 19.1%

N[C@@H](CCC(=O)O)C(=O)O [Glutamic acid]
Relative ratio [1]: 15

NCCCC[C@H](N)C(=O)O [Lysine]
growth of human epidermal keratinocytes in deficient medium [1]: growth was suppressed
Relative ratio [1]: 9
Permeability of each amino acid [2]: 19.6%

C[C@@H](O)[C@H](N)C(=O)O [Threonine]
growth of human epidermal keratinocytes in deficient medium [1]: growth was suppressed
Relative ratio [1]: 8
Permeability of each amino acid [2]: 19.3%

OC[C@H]1O[C@H](O[C@H]2O[C@H](CO)[C@@H](O)[C@H](O)[C@H]2O)[C@H](O)[C@@H](O)[C@@H]1O [Trehalose]
Permeability (%) of the permeated whole amino acids [2]: 7.2%

CSCC[C@H](N)C(=O)O [Methionine]
Relative ratio [1]: 12
Permeability of each amino acid [2]: 7.4%

C[C@H](N)C(=O)O [Alanine]
Relative ratio [1]: 14
Permeability of each amino acid [2]: 8.4%

OC[C@H]1OC(O)[C@H](O)[C@@H](O)[C@@H]1O (stereo partly shown) [Glucose]
Permeability (%) of the permeated whole amino acids [2]: 9.6%

N=C(N)NCCC[C@H](N)C(=O)O [Arginine]
growth of human epidermal keratinocytes in deficient medium [1]: growth was suppressed
Relative ratio [1]: 8
Permeability of each amino acid [2]: 18.1%

NCC(=O)O [Glycine]
growth of human epidermal keratinocytes in deficient medium [1]: growth was suppressed
Relative ratio [1]: 9
Permeability of each amino acid [2]: 14.3%
